Source: patent publication US9920069B2, “Compounds for treatment of fluoroquinolone-resistant bacteria” (The Board of Trustees of the University of Illinois, priority 2014, dated 2018)
≈ marks a conversion by molar mass, not a printed value. Entries after “also recorded” stand apart in the source; their conditions may differ.

Assays:
[1] = tested on: VRE harboring the S83I mutation (GyrA); assay: microbe, parasite or virus in culture; format: cell-based; conditions: Enterococcus
[2] = tested on: normal (i.e. non-cancerous) cell lines; conditions: cited from earlier work
[3] = tested on: VRE clinical isolate U275; assay: organism not typed; format: cell-based, E. faecium
Protocol: (§1) QRDR mutations were determined as described in the text using primers (primer sequences can be found in Table 7).
(§2) Susceptibility testing was performed in triplicate using the microdilution broth method as outlined by the Clinical and Laboratory Standards Institute CLSI^52. MH broth was used.

[4] = tested on: VRE clinical isolate S51; assay: organism not typed; format: cell-based, E. faecium
Protocol: as §1, §2

[5] = tested on: VRE clinical isolate U464; assay: organism not typed; format: cell-based, E. faecium
Protocol: as §1, §2

[6] = tested on: VRE clinical isolate C27282; assay: organism not typed; format: cell-based, E. faecium
Protocol: as §1, §2

[7] = tested on: VRE clinical isolate S226; assay: organism not typed; format: cell-based, E. faecium
Protocol: as §1, §2

[8] = tested on: VRE clinical isolate C21190; assay: organism not typed; format: cell-based, E. faecium
Protocol: as §1, §2

[9] = tested on: VRE clinical isolate S235; assay: organism not typed; format: cell-based, E. faecium
Protocol: as §1, §2

[10] = tested on: PA1586; assay: MIC, microdilution broth; format: cell-based, P. aeruginosa; conditions: Pseudomonas aeruginosa
Protocol: E. coli MG1655 and the ΔAcrB strain were obtained from Prof. Cari Vanderpool at UIUC.
as §2

[11] = tested on: MRSA clinical isolate SAU.447; assay: MIC, microdilution broth; format: cell-based, S. aureus; conditions: Staphylococcus aureus
Protocol: as §2

[12] = tested on: MRSA clinical isolate SAU.3026; assay: MIC, microdilution broth; format: cell-based, S. aureus; conditions: Staphylococcus aureus, MRSA, read-out: MIC
Protocol: as §2

[13] = tested on: MRSA clinical isolate SAU.3021; assay: MIC, microdilution broth; format: cell-based, S. aureus; conditions: Staphylococcus aureus, MRSA, read-out: MIC
Protocol: as §2

[14] = tested on: S. aureus ATCC 29213 derived strains; assay: Resistant mutant generation (resistance frequency); conditions: development of DNM resistance in high level CIP resistant strains
[15] = biological target: T1, WT E. coli DNA gyrase (Escherichia coli, UniProt P0AES4); format: biochemical; conditions: in words
T1 construct: His tag (pTrcHisA vector, purified on Ni-NTA); made in house; host or cells: E. coli One Shot BL21 Star (DE3)

[16] = tested on: MRSA clinical isolates; assay: Panel of MRSA clinical isolates (FIG. 2A); format: cell-based, S. aureus; conditions: n=21, in words
[17] = tested on: VRE clinical isolate S234; assay: organism not typed; format: cell-based, E. faecalis; conditions: read-out: MIC
[18] = biological target: T2, human topoisomerase II (Homo sapiens, UniProt P11388); assay: Human topoisomerase decatenation assay; format: biochemical; conditions: lowest inhibiting / highest without significant inhibition
T2 construct: purchased Inspiralis
Protocol: The decatenation assay was performed with the Human Topo II Decatenation Assay Kit (Inspiralis) according to the manufacturer's instructions with minor modifications. First, a master mix was made containing 2 μL 10× assay buffer (500 mM Tris.HCl, pH 7.5, 1250 mM NaCl, 100 mM MgCl2, 50 mM DTT, 1000 μg/mL albumin), 0.67 μL 30 mM ATP, 1.34 μL 0.1 ng/μL kDNA, and 14.3 μL of nuclease free water per sample is made. DMSO or 30× compound is added to a 0.5 mL Eppendorf tube (0.67 μL per tube). The master mix is then added to each tube (18.3 μL per tube). Finally, 1 U of human topoisomerase (1 μL of 1 U/μL stock) is added to each tube for a final volume of 20 μL. The tubes are then incubated at 37° C. for 30 min. Reactions are stopped by the addition of 20 μL of 24:1 chloroform:isoamyl alcohol and 20 μL of stop dye (40% sucrose, 1 mM EDTA, 100 mM TrisHCl pH 7.5, 0.5 μg/mL bromophenol blue). Samples were run on 1% agarose gels containing 0.5 μg/mL ethidium bromide for 1 h at 110V or until the dye front was approximately halfway down the gel. Gels were imaged on a Molecular Imager Gel Doc XR+ (Biorad).

[19] = tested on: FQR MRSA (NRS3); assay: Mouse sepsis model, survival; conditions: 50 mg kg^−1 oral gavage once-a-day 10 days; vs CIP and vehicle, P<0.005
[20] = In vivo toxicity assessment, 10 days; set-up: species or system BALB/c mice; conditions: 50 mg kg^−1 oral once-a-day 10 days; in words
Protocol: Toxicity was assessed as previously described^56. Specifically, heparinized whole blood was collected for assessment of total white blood cells, neutrophils, lymphocytes, hematocrit, platelets, creatinine, blood urea, nitrogen, albumin, alanine aminotransferase, alkaline phosphatase, and total bilirubin. Mice were euthanized by overdosing with Ketamine/Xylazine, and heart, lung, kidney, liver, spleen, gastrointestinal tract and brain were collected for histopathology. Tissue samples were fixed 24 hours in 10% neutral buffered formalin, processed, and paraffin embedded, sectioned (5 μm thickness) and stained with hematoxylin and eosin. All slides were systematically evaluated by a single board certified veterinary anatomic pathologist (SL) for evidence of acute or chronic inflammation and toxicity. All lesions were characterized, recorded, and scored for severity (minimal=1, mild=2, moderate=3, and severe=4).

Row | Compound | MIC [1] | toxicity to normal cell lines [2] | MIC [3] | MIC [4] | MIC [5] | MIC [6] | MIC [7] | MIC [8] | MIC [9] | MIC [10] | MIC [11] | MIC [12] | MIC [13] | resistance frequency [14] | inhibition of WT DNA gyrase [15] | sensitivity of MRSA clinical isolates [16] | MIC [17] | concentration inhibiting human topoisomerase II [18] | survival of mice infected with FQR MRSA (NRS3) [19] | hematological and non-hematological toxicity [20]
1 | Cc1cc(=O)n(C)c2c3c4c(cc12)c(C)cc(=O)n4CO3 [DNM, deoxynybomycin] | 0.125 to 1 µg/mL (≈ 0.443 to 3.54 µM) | non-toxic | 1 µg/mL (≈ 3.54 µM) | 0.25 µg/mL (≈ 0.886 µM) | 1 µg/mL (≈ 3.54 µM) | > 1 µg/mL | 0.25 µg/mL (≈ 0.886 µM) | > 1 µg/mL | 0.125 µg/mL (≈ 0.443 µM) | > 4 µg/mL | 0.063 µg/mL (≈ 0.223 µM) | 0.125 µg/mL (≈ 0.443 µM) | 0.031 µg/mL (≈ 0.11 µM) | 1×10^−10 to 7×10^−10 | poor inhibitors of WT DNA gyrase | sensitive | – | – | – | –
2 | CCn1c(=O)cc(C)c2cc3c(C)cc(=O)n4c3c(c21)OC4 [DNM-2] | – | – | 2 µg/mL (≈ 6.75 µM) | 0.5 µg/mL (≈ 1.69 µM) | 2 µg/mL (≈ 6.75 µM) | 4 µg/mL (≈ 13.5 µM) | 0.5 µg/mL (≈ 1.69 µM) | 8 µg/mL (≈ 27 µM) | 0.5 µg/mL (≈ 1.69 µM) | > 24 µg/mL | 0.125 µg/mL (≈ 0.422 µM) | 0.125 µg/mL (≈ 0.422 µM) | 0.063 µg/mL (≈ 0.213 µM) | – | poor inhibitors of WT DNA gyrase | sensitive | 0.25 µg/mL (≈ 0.844 µM) | > 30 µM | significant survival difference; also recorded: effective | No clinically significant evidence for myelosuppression, renal injury, or hepatic toxicity
